Key:
Cannabinoid receptor 1 = Cannabinoid receptor 1 (Rattus norvegicus, UniProt P20272); assay: The compound was evaluated for its affinity towards cannabinoid receptor 1 (CB1) in rat brain; type: tissue-based
Cannabinoid receptor 2 = Cannabinoid receptor 2 (Mus musculus, UniProt P47936); assay: The compound was evaluated for its affinity towards cannabinoid receptor 2 (CB2) in mouse spleen; type: tissue-based
Cannabinoid receptor 2, sequence (P47936 whole entry): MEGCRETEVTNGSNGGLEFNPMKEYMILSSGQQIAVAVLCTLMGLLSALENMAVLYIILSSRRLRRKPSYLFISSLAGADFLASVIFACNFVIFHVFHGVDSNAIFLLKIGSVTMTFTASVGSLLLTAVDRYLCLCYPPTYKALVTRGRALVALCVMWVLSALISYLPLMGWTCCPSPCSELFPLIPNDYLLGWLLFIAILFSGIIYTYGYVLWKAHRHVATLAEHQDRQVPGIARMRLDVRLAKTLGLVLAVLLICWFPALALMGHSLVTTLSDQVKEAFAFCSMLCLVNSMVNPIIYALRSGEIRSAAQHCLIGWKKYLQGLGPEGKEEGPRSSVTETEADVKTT

Cannabinoid receptor 1, sequence (P20272 whole entry): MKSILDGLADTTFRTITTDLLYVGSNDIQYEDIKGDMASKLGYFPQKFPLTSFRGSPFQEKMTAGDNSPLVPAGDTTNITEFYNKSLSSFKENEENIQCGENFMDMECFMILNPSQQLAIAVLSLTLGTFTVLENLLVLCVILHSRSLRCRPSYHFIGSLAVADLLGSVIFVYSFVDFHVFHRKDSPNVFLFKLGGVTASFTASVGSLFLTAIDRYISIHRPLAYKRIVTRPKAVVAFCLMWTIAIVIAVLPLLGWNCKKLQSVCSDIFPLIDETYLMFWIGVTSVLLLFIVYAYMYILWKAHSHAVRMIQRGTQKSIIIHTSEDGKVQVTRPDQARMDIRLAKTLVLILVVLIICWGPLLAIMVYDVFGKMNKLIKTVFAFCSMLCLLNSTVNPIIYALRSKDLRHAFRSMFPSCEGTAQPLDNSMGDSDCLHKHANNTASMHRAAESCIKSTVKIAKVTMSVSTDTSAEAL

| SMILES | Ki (Cannabinoid receptor 1) | Ki (Cannabinoid receptor 2; read-out: Ki) | Ki (Cannabinoid receptor 2) |
| --- | --- | --- | --- |
| CCCCCCC(O)c1cc(O)c2c(c1)OC(C)(C)[C@@H]1CC=C(C)C[C@@H]21 (stereo partly specified) | 0.0864 µM | 0.0656 µM | – |
| CCCCCCC1(c2cc(O)c3c(c2)OC(C)(C)[C@@H]2CC=C(C)C[C@@H]32)CC1 | 0.00217 µM | 0.0033 µM | – |
| CCCCCC#Cc1cc(O)c2c(c1)OC(C)(C)[C@@H]1CC=C(C)C[C@@H]21 | 0.00065 µM | 0.0031 µM | – |
| C=C(C)[C@@H]1CCC(C)=C[C@H]1c1c(O)cc(C2(CCCCCC)SCCS2)cc1O | 0.136 µM | 0.0504 µM | – |
| CCCCCCC(=O)c1cc(O)c2c(c1)OC(C)(C)[C@@H]1CC=C(C)C[C@@H]21 | 0.0217 µM | 0.0837 µM | – |
| CCCCCCC1(c2cc(O)c3c(c2)OC(C)(C)[C@@H]2CC=C(C)C[C@@H]32)SCCS1 | – | – | 0.00052 µM |
